Measurements taken from PMC6892409, “Phenotypic proteomic profiling identifies a landscape of targets for circadian clock–modulating compounds” (Life Science Alliance, 2019).
Read-outs that look alike come from different tables or passages of the source.

Legend:
[1] = system: Per2-dLuc U2OS cells; assay: Circadian luminescence period assay, Per2-dLuc U2OS cells; format: cell-based, human; details: 7 μM, mean ± SEM, control 24.2 ± […]
Description: Per2-dLuc U2OS osteosarcoma and Bmal1-dLuc U2OS osteosarcoma reporter cell lines were gifts from Dr Andrew Liu, University of Memphis, USA ([Liu et al, 2008]). […] The cells were cultured at 37°C, 5% CO2 in a standard humidified incubator.

[2] = molecular target: T1, CAMK2d (Homo sapiens, UniProt Q13557); assay: Radiometric HotSpot kinase assay; format: biochemical; details: 100 μM, n = 3; remaining activity vs DMSO; read-out: Enzyme activity (%) CAMK2d
T1 construct: purchased Reaction Biology
Description: (§1) In brief, specific kinase/substrate pairs were mixed in a buffer containing 20 mM Hepes (pH 7.5), 10 mM MgCl2, 1 mM EGTA, 0.02% Brij35, 0.02 mg/ml BSA, 0.1 mM Na3VO4, 2 mM DTT, and 1% DMSO. […] After a 20-min incubation, ATP (cat. no. A7699; Sigma-Aldrich) and [γ-^33P] ATP (cat. no. NEG602H001MC; PerkinElmer) were added at a final total concentration of […].

[3] = molecular target: T2, CDK2 (Homo sapiens, UniProt P24941); assay: Radiometric HotSpot kinase assay; format: biochemical; details: n = 3, remaining activity vs DMSO, read-out: Enzyme activity (%) CDK2
T2 construct: purchased Reaction Biology
Description: as §1

[4] = molecular target: T3, CDK7 (Homo sapiens, UniProt P50613); assay: Radiometric HotSpot kinase assay; format: biochemical; details: 100 μM, n = 3; remaining activity vs DMSO; read-out: Enzyme activity (%) CDK7
T3 construct: purchased Reaction Biology
Description: as §1

[5] = molecular target: T4, CK1d (Homo sapiens, UniProt P48730); assay: Radiometric HotSpot kinase assay; format: biochemical; details: n = 3, remaining activity vs DMSO, read-out: Enzyme activity (%) CK1d
T4 construct: purchased Reaction Biology
Description: as §1

[6] = molecular target: T5, CK2a (Homo sapiens, UniProt P68400); assay: Radiometric HotSpot kinase assay; format: biochemical; details: 100 μM, n = 3; remaining activity vs DMSO; read-out: Enzyme activity (%) CK2a
T5 construct: purchased Reaction Biology
Description: as §1

[7] = molecular target: T6, ERK1/MAPK3 (Homo sapiens, UniProt P27361); assay: Radiometric HotSpot kinase assay; format: biochemical; details: 100 μM, n = 3; remaining activity vs DMSO; read-out: Enzyme activity (%) ERK1/MAPK3
T6 construct: purchased Reaction Biology
Description: as §1

[8] = molecular target: T7, ERK2/MAPK1 (Homo sapiens, UniProt P28482); assay: Radiometric HotSpot kinase assay; format: biochemical; details: 100 μM, n = 3; remaining activity vs DMSO; read-out: Enzyme activity (%) ERK2/MAPK1
T7 construct: purchased Reaction Biology
Description: as §1

[9] = molecular target: T8, MST4/STK26 (Homo sapiens, UniProt Q9P289); assay: Radiometric HotSpot kinase assay; format: biochemical; details: 100 μM, n = 3; remaining activity vs DMSO; read-out: Enzyme activity (%) MST4/STK26
T8 construct: purchased Reaction Biology
Description: as §1

[10] = molecular target: T9, TNIK (Homo sapiens, UniProt Q9UKE5); assay: Radiometric HotSpot kinase assay; format: biochemical
T9 construct: purchased Reaction Biology
Description: as §1

[11] = molecular target: RPL37 (Homo sapiens, UniProt P61927); assay: TPP in intact U2OS cells; format: binding; details: vs vehicle
[12] = molecular target: PSMG4 (Homo sapiens, UniProt Q5JS54); assay: TPP in intact U2OS cells; format: binding; details: vs vehicle
[13] = molecular target: Rab GTPase-binding effector protein 1 (RABEP1) (Homo sapiens, UniProt Q15276); assay: TPP in intact U2OS cells; details: vs vehicle
[14] = molecular target: F-box protein 21 (FBX21) (Homo sapiens, UniProt O94952); assay: TPP in intact U2OS cells; format: binding; details: vs vehicle
[15] = molecular target: Cleavage stimulation factor subunit 2 tau variant (CSTF2T) (Homo sapiens, UniProt Q9H0L4); assay: TPP in intact U2OS cells; format: binding; details: vs vehicle
[16] = molecular target: DYNC1I2 (Homo sapiens, UniProt Q13409); assay: TPP in intact U2OS cells; format: binding; details: vs vehicle
[17] = molecular target: TNS1 (Homo sapiens, UniProt Q9HBL0); assay: TPP in intact U2OS cells; format: binding; details: vs vehicle
[18] = molecular target: NFU1 (Homo sapiens, UniProt Q9UMS0); assay: TPP in intact U2OS cells; format: binding; details: vs vehicle
[19] = molecular target: SARS2 (Homo sapiens, UniProt Q9NP81); assay: TPP in intact U2OS cells; format: binding
[20] = molecular target: CYCS (Homo sapiens, UniProt P99999); assay: TPP in intact U2OS cells; format: binding; details: vs vehicle
[21] = system: Synechococcus elongatus; assay: Luminescence rhythm period assay in cyanobacteria; details: 3, 8, 16 and 32 μM
Description: The D730nm was maintained between 0.27 and 0.45 by dilution with fresh medium.
Circadian period–altering compounds (dissolved in DMSO, final 0.5% DMSO) were then added in the air medium to reach the different desired concentrations. […] Images were generated from integrated photon counts over 25 min every 30 min using Metamorph software (Molecular Devices). […] Exported images were composed into image stacks and were quantified in a time series using a custom script in NIH ImageJ software, applying the “Multi Measure” plugin.

Chain of DYNC1I2 (Q13409 whole entry): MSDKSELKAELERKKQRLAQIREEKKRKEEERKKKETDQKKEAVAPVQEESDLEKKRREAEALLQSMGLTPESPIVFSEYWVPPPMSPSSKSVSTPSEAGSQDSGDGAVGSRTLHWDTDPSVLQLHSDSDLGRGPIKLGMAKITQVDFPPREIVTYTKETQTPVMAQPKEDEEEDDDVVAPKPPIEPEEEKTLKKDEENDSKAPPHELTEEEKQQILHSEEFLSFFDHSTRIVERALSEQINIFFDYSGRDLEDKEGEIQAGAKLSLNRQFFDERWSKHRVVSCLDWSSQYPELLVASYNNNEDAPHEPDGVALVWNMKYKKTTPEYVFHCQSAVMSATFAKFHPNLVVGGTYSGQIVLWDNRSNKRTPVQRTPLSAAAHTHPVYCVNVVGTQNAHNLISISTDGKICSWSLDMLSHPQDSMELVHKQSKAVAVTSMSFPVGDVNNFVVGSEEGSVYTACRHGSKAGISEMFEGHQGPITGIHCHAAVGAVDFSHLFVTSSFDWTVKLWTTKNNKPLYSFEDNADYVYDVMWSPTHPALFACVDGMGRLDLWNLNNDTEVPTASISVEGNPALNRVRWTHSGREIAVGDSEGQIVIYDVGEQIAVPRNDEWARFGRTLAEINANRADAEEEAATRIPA
Chain of CYCS (P99999 whole entry): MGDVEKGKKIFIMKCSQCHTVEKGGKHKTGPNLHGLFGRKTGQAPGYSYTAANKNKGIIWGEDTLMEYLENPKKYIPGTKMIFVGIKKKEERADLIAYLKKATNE
Chain of F-box protein 21 (FBX21) (O94952 whole entry): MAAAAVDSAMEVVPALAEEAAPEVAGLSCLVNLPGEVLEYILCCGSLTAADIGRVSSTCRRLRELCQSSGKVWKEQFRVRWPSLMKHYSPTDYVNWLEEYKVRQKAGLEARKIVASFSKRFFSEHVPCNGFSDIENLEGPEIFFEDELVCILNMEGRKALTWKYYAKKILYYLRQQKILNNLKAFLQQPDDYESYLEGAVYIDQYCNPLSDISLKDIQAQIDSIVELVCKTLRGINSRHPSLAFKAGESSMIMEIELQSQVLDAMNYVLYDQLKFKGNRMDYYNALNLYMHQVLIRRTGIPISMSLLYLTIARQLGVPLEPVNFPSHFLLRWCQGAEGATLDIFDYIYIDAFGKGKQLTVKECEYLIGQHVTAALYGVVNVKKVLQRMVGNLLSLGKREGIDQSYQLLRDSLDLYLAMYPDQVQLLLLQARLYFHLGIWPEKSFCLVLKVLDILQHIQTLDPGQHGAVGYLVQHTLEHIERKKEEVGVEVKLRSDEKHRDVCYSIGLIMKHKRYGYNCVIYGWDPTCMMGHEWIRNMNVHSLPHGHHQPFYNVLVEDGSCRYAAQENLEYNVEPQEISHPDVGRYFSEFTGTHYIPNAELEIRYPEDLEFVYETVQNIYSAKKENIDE
Chain of NFU1 (Q9UMS0 10-254): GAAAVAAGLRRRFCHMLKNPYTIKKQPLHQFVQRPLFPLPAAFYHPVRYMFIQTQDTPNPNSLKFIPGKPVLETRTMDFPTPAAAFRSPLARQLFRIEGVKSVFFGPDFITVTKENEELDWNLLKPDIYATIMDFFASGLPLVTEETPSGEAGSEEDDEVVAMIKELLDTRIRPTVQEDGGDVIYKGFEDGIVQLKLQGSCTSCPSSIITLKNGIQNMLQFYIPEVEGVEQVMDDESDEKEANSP
Chain of SARS2 (Q9NP81 35-518): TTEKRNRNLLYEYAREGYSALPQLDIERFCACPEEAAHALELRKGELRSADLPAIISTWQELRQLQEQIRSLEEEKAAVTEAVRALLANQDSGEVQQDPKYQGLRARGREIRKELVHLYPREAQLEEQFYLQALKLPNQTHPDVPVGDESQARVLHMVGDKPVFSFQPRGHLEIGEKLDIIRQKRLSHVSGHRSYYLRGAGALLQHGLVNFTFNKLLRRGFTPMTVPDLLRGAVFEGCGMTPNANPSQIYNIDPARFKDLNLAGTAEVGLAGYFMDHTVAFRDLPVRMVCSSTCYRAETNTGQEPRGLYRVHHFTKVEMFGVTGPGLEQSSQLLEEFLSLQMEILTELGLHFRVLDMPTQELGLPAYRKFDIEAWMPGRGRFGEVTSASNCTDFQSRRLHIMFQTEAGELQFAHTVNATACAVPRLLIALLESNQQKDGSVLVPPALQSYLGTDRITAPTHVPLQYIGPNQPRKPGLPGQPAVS
T9 sequence (Q9UKE5 whole entry): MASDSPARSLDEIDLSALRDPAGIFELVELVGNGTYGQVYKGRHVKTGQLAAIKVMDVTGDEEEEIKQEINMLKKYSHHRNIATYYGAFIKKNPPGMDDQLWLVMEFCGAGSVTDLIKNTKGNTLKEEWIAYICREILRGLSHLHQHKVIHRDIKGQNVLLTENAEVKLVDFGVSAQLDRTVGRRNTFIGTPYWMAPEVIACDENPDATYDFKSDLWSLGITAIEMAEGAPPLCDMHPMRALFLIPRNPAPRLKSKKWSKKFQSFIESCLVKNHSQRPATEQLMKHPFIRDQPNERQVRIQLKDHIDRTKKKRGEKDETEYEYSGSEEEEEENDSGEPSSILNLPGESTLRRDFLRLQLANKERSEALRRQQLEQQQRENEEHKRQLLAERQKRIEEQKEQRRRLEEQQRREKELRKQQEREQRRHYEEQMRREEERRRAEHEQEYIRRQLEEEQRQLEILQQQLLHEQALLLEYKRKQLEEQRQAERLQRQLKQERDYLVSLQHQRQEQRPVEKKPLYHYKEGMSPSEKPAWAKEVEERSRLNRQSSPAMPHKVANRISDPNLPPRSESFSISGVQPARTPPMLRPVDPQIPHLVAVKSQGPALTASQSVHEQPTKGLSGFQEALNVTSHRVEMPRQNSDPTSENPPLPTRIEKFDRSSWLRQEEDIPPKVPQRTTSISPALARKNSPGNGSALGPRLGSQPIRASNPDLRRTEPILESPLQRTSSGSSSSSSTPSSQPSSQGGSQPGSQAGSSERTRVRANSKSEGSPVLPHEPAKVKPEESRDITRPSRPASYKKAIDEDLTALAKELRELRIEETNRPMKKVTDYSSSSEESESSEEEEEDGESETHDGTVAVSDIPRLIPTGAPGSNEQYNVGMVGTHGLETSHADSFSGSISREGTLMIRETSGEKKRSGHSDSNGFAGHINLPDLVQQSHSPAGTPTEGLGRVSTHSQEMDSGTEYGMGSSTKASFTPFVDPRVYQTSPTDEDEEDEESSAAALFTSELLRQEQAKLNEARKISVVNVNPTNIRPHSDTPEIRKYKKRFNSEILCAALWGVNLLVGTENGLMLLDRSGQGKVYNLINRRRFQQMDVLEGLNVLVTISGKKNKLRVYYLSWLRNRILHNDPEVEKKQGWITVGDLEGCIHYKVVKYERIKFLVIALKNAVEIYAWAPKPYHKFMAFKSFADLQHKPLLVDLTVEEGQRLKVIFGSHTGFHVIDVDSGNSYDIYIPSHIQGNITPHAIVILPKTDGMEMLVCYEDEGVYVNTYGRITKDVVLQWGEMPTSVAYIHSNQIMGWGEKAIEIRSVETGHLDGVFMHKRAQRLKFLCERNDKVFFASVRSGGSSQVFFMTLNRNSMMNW
Chain of Rab GTPase-binding effector protein 1 (RABEP1) (Q15276 whole entry): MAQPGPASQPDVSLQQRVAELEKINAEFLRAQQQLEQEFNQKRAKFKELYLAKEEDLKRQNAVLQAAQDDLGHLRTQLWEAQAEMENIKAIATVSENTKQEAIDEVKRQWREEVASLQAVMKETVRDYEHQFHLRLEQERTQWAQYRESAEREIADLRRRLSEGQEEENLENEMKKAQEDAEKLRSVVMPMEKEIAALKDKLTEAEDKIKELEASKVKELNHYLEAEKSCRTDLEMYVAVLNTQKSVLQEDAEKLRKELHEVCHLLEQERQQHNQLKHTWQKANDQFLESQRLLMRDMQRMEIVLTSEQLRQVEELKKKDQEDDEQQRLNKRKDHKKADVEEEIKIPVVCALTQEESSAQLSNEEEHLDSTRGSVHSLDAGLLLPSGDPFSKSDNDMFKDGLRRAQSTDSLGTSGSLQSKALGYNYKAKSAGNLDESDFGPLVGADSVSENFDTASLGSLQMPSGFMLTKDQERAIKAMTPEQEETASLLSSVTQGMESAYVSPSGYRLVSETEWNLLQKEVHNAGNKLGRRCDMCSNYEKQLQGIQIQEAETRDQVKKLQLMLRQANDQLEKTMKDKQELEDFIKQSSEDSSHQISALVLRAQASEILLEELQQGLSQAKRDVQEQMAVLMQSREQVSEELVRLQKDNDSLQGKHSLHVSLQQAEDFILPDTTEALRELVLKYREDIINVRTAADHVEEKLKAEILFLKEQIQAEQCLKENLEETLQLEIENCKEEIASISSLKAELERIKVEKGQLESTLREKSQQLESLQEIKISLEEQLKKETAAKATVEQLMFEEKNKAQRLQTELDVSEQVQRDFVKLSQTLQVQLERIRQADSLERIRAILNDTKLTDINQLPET
Chain of PSMG4 (Q5JS54 whole entry): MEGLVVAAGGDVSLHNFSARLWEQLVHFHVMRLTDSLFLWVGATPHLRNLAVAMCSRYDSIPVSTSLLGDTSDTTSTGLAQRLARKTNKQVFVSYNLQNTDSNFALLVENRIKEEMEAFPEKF
T5 sequence (P68400 whole entry): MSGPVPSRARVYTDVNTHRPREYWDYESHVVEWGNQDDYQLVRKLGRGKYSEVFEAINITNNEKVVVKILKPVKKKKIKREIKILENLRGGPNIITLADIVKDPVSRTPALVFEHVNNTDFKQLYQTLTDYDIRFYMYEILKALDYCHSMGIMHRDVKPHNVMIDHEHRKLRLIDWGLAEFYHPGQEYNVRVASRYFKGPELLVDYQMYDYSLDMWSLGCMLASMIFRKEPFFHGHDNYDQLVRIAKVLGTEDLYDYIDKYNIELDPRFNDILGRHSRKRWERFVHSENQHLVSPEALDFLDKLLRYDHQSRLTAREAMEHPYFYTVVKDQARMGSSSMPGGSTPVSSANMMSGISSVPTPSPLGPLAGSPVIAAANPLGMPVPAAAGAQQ

## Oc1c2ccccc2c2c3c(cccc13)N=N2 [SP600125]
[1]
  Circadian period length: 28.6 ± 0.1 h
[2]
  remaining activity at 100 µM: 14.7%
[3]
  remaining activity at 100 µM: 5.3%
[4]
  remaining activity at 100 µM: 13.2%
[5]
  remaining activity at 100 µM: 0.9%
[6]
  remaining activity at 100 µM: 5.7%
[7]
  remaining activity at 100 µM: 76.7%
[8]
  remaining activity at 100 µM: 70.7%
[9]
  remaining activity at 100 µM: 14.4%
[10]; 100 μM, n = 3, remaining activity vs DMSO, read-out: Enzyme activity (%) TNIK
  remaining activity at 100 µM: 1.1%
[10]; 10-dose, threefold serial dilution starting at 100 μM
  IC50: < 500 nM
[11]; Rep1, read-out: + Tm shift RPL37, Rep1
  ΔTm at 10 µM: 2.9 °C
[11]; Rep2, read-out: + Tm shift RPL37, Rep2
  ΔTm at 10 µM: 2.1 °C
[12]; Rep1, read-out: + Tm shift PSMG4, Rep1
  ΔTm at 10 µM: 3.4 °C
[12]; Rep2, read-out: + Tm shift PSMG4, Rep2
  ΔTm at 10 µM: 3.5 °C
[13]; Rep1, read-out: + Tm shift RABEP1, Rep1
  ΔTm at 10 µM: 3.5 °C
[13]; Rep2, read-out: + Tm shift RABEP1, Rep2
  ΔTm at 10 µM: 4.4 °C
[14]; Rep1, read-out: + Tm shift FBX21, Rep1
  ΔTm at 10 µM: 3.2 °C
[14]; Rep2, read-out: + Tm shift FBX21, Rep2
  ΔTm at 10 µM: 2.3 °C
[15]; Rep1, read-out: + Tm shift CSTF2T, Rep1
  ΔTm at 10 µM: 1.3 °C
[15]; Rep2, read-out: + Tm shift CSTF2T, Rep2
  ΔTm at 10 µM: 1.8 °C
[16]; Rep1, read-out: + Tm shift DYNC1I2, Rep1
  ΔTm at 10 µM: 2.5 °C
[16]; Rep2, read-out: + Tm shift DYNC1I2, Rep2
  ΔTm at 10 µM: 0.8 °C
[17]; Rep1, read-out: + Tm shift TNS1, Rep1
  ΔTm at 10 µM: 1.1 °C
[17]; Rep2, read-out: + Tm shift TNS1, Rep2
  ΔTm at 10 µM: 1.6 °C
[18]; Rep1, read-out: + Tm shift NFU1, Rep1
  ΔTm at 10 µM: 1.3 °C
[18]; Rep2, read-out: + Tm shift NFU1, Rep2
  ΔTm at 10 µM: 1.2 °C
[19]; read-out: + Tm shift SARS2, Rep1
  ΔTm at 10 µM: 1.2 °C
[19]; read-out: + Tm shift SARS2, Rep2
  ΔTm at 10 µM: 1.3 °C
[20]; Rep1, read-out: + Tm shift CYCS, Rep1
  ΔTm at 10 µM: 1 °C
[20]; Rep2, read-out: + Tm shift CYCS, Rep2
  ΔTm at 10 µM: 1 °C
[21]
  Effect on period length in cyanobacteria: do not affect period length
